Tests used:
[1] = system: CP patient derived myoblast cells; experiment: Myoblast fusion and myotube formation, immunostaining and Fusion Index; type: cell-based, human; conditions: 5 μM, 24 hours pretreatment, 42 hours differentiation
Excerpt: Myotubes were differentiated using the following methods. Once the appropriate level of cell confluence of 50-80% was obtained for the myoblast cell preparation, fusion and differentiation of myoblasts into myotubes was promoted by switching from a high-serum medium to a low-serum differentiation medium. […] Specifically, the high-serum proliferation medium was made of Ham's F10 medium (Corning Life Sciences, Tewksbury, Mass.) combined with 20% Fetal Bovine Serum (“FBS”) (Gibco brand, Thermo Fischer Scientific, Waltham, Mass.) 10 mg/ml streptomycin, and 100 units/ml penicillin (Gibco), human recombinant bFGF (5 ng/ml) (Becton Dickenson). […] Cell preparations cultured in the low-serum differentiation medium may be analyzed for myotube formation starting from about 24 hours to about 6 weeks after switching from the high-serum to the low-serum medium.
For visual and quantitative analysis by immunostaining, the isolated satellite cell-derived myoblast cell preparations were treated for immunostaining. […] Fluorescence microscopy was performed using an epifluorescence or confocal microscope using the 20× air objective, the 40×, or 63× oil immersion objective and zoom rates between 1 and 3 in sequential scanning mode. […]

C2C12 myoblasts = conditions: cited from earlier work
[2] = system: myoblast cell preparation; experiment: 5-AZA concentration and medium finding in myoblast cell preparation
Excerpt: The myoblast cell preparation may be cultured in a proliferation medium in the presence of a DNA methyltransferase inhibitor, such as 5-AZA. A DNA methyltransferase inhibitor may be introduced while the myoblast cell preparation is being developed in the proliferation medium. For instance, a DNA methyltransferase inhibitor may be introduced once the myoblast cell preparation is at 50-80% cell confluence by visual inspection. A higher confluence percentage or density may be appropriate, so long as the confluence is not so high that the cells become overcrowded or grow in multiple layers, resulting in spontaneous cell fusion and/or cell death. The DNA methyltransferase inhibitor may be introduced earlier, for instance, at the same time the isolated satellite cells are added to the proliferation medium. […] Concentrations of DNA methyltransferase inhibitor used may vary. For example, the myoblast cell preparation may be cultured in proliferation medium in the presence of 5 μM of 5-AZA. […] The myoblast cell preparation may be cultured in the presence of a DNA methyltransferase inhibitor for a period of time. One appropriate period of time using 5 μM of 5-AZA is 24 hours. As few as 6 hours may be appropriate using 5 μM of 5-AZA.

[3] = system: CpG island located in the promoter region of the human ITGB1 gene; experiment: Promoter methylation PCR of ITGB1 CpG island; type: cell-based; conditions: 5 μM, 24-hour treatment in proliferation medium before differentiation
Method: Myoblast cell preparations from CP and TD study subjects were exposed to 5 μM of the DNA methyltransferase inhibitor 5-AZA in proliferation medium. 5-AZA was introduced while the myoblast cell preparations were being developed in the high-serum medium, once the myoblast cell preparations were at about 70% cell confluence by visual inspection. The myoblast cell preparations each were cultured in a high-serum medium in the presence of 5 μM of 5-AZA for 24 hours. The myoblast cell preparations then had the 5-AZA washed off by switching the myoblast cell preparations each to a low-serum medium.
Myoblasts were seeded at 50,000 cells/well, at approximately 13,000 cells/cm^2, in a 12-well plate and maintained in the same proliferation medium as described in Example 1. The cells were allowed to proliferate at 37° C. and 5% CO2 until they reach up to 50-80% cell confluence by visual inspection. The proliferating myoblasts are then treated with 5 μM 5-AZA (Sigma-Aldrich) for 24 hours to induce DNA hypomethylation before differentiation. 5-AZA was obtained from a 10 uM stock solution diluted 1:2000. In a 2000 mL well, 1 mL of 5 μM 5-AZA was used. […]
The PCR amplification curves or the intensity of the amplified product in the agarose gel following electrophoresis may be used to quantify the levels of DNA methylation for a specific promoter region. […]

[4] = 5 μM for 3 days (Montesano et al.)

SMILES: Nc1ncn([C@@H]2O[C@H](CO)[C@@H](O)[C@H]2O)c(=O)n1 [5-AZA, 5-azacytidine]
- myoblast fusion and myotube formation, morphologically ([1]; FIG. 4B): sufficient to partially restore myoblast fusion and myotube formation
- myoblast fusion and myotube formation, quantitatively (Fusion Index) ([1]; FIG. 4C): sufficient to partially restore myoblast fusion and myotube formation
- DNA methylation and differentiation (C2C12 myoblasts; [4]): induced DNA hypomethylation and improved differentiation of C2C12 myoblasts
- cytotoxicity (C2C12 myoblasts; [4]): without overt signs of cytotoxicity
- muscle-specific gene expression, myogenesis and myotube formation (C2C12 myoblasts; mouse-derived C2C12 muscle cell lines): promoted expression of muscle-specific genes, enhanced myogenesis and myotube formation
- myotube growth ([2]; 0.5 μM of 5-AZA): not sufficiently concentrated to cause appropriate myotube growth
- death of the cells ([2]; 50 μM of 5-AZA): causes the death of the cells in the myoblast cell preparation
- concentrations lethal to cells ([2]; human): ≥ 50 µM
- DNA methylation of the CpG island in the ITGB1 promoter region [3]: sufficient to cause hypomethylation of the CpG island in the ITGB1 promoter region
